Measured values reported in ChEMBL document CHEMBL3124800, “HTS followed by NMR based counterscreening. Discovery and optimization of pyrimidones as reversible and competitive inhibitors of xanthine oxidase” (Bioorg Med Chem Lett, 2014).
Converted amounts (≈) assume the structure as drawn.

Experiments:
[1] = target: Xanthine dehydrogenase/oxidase (Homo sapiens, UniProt P47989)
[2] = Intrinsic clearance in human liver microsomes; type: ADME; details: read-out: CLH
[3] = Solubility of the compound in phosphate buffer at pH 7.4
[4] = Apparent permeability across basolateral side to apical side in human Caco2 cells; details: Caco-2
[5] = Apparent permeability across apical side to basolateral side in human Caco2 cells; details: Caco-2
[6] = system: Rattus norvegicus; assay: Volume of distribution at steady state in Han Wistar rat at […]; type: ADME, organism-based; details: in vivo
[7] = Oral bioavailability in Han Wistar rat at 6 umol/kg; type: ADME, organism-based; details: in vivo
[8] = Clearance in Han Wistar rat at 1 umol/kg, iv; type: ADME, organism-based; details: in vivo
[9] = Cmax in Han Wistar rat at 6 umol/kg, po; type: ADME, organism-based; set-up: dose 6 umol/kg, route oral; details: in vivo
[10] = Half life in Han Wistar rat at 1 umol/kg, iv; type: ADME, organism-based; details: in vivo
[11] = Plasma concentration in potassium oxonate-induced hyperuricemic Sprague-Dawley rat model at 10 mg/kg, po measured after 2 hrs; type: ADME, organism-based; set-up: dose 10 mg/kg, route oral
[12] = system: Rattus norvegicus; assay: Antihyperuricemic activity in potassium oxonate-induced hyperuricemic Sprague-Dawley rat model assessed as decrease of uric acid level in serum at 10 mg/kg, po measured after 2 hrs relative to vehicle-treated control; type: functional; set-up: scale not given: the % may be the effect or the level left
[13] = system: Rattus norvegicus; assay: Antihyperuricemic activity in potassium oxonate-induced hyperuricemic Sprague-Dawley rat model assessed as decrease of uric acid level in serum at 10 mg/kg, po measured after 1 hr relative to vehicle-treated control; type: functional; set-up: scale not given: the % may be the effect or the level left
[14] = target: Xanthine dehydrogenase/oxidase (Rattus norvegicus, UniProt P22985); assay: Inhibition of rat xanthine oxidase
[15] = system: Hepatocyte; assay: Intrinsic clearance in human hepatocytes assessed per million cells; type: ADME, cell-based
[16] = target: T1, Xanthine dehydrogenase/oxidase (Bos taurus, UniProt P80457); assay: Inhibition of bovine xanthine oxidase
[17] = target: T1, Xanthine dehydrogenase/oxidase; assay: Competitive inhibition of bovine xanthine oxidase
[18] = target: T1, Xanthine dehydrogenase/oxidase; assay: Reversible inhibition of bovine xanthine oxidase; details: cattle
[19] = system: Plasma; assay: Antihyperuricemic activity in potassium oxonate-induced hyperuricemic Sprague-Dawley rat model assessed as decrease of uric acid level in serum at 30 mg/kg, po measured after 2 hrs relative to vehicle-treated control; type: functional; set-up: scale not given: the % may be the effect or the level left
[20] = system: Rattus norvegicus; assay: Antihyperuricemic activity in potassium oxonate-induced hyperuricemic Sprague-Dawley rat model assessed as decrease of uric acid level in serum at 30 mg/kg, po measured after 1 hr relative to vehicle-treated control; type: functional; set-up: scale not given: the % may be the effect or the level left

Sequence of Xanthine dehydrogenase/oxidase (Homo sapiens, UniProt P47989) (P47989 whole entry): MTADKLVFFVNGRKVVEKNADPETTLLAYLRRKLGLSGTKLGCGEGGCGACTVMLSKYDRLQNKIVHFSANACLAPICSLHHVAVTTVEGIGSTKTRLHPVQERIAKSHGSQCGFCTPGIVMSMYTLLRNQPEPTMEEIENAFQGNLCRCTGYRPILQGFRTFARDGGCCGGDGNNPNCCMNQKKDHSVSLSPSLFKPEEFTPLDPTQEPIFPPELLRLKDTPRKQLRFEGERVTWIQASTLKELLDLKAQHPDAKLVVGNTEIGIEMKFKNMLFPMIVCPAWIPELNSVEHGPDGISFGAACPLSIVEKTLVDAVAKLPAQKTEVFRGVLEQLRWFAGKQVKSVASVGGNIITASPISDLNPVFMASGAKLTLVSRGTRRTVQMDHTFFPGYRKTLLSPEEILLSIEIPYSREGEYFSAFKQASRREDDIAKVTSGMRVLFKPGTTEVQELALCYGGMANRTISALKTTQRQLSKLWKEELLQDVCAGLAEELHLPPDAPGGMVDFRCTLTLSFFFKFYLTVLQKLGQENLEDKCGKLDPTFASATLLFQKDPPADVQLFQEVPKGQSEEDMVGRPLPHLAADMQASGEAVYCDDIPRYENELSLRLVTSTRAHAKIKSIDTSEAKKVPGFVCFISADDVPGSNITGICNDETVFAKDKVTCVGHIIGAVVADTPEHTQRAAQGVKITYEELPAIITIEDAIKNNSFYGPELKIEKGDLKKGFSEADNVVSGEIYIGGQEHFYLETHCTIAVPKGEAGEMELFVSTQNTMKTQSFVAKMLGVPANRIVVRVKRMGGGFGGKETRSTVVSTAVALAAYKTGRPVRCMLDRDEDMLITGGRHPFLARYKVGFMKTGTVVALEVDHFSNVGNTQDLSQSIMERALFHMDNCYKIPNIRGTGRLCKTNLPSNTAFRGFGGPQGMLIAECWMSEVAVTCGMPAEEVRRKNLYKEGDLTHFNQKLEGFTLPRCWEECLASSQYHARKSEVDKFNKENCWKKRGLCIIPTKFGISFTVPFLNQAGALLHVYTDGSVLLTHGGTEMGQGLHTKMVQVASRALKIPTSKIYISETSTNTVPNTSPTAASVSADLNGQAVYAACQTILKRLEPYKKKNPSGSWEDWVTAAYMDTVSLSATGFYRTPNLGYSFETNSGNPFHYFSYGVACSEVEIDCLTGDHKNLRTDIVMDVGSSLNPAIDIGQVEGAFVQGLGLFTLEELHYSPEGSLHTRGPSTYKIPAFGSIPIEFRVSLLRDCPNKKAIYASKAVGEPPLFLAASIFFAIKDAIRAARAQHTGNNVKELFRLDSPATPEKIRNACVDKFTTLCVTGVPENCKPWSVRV
T1 sequence (P80457 whole entry): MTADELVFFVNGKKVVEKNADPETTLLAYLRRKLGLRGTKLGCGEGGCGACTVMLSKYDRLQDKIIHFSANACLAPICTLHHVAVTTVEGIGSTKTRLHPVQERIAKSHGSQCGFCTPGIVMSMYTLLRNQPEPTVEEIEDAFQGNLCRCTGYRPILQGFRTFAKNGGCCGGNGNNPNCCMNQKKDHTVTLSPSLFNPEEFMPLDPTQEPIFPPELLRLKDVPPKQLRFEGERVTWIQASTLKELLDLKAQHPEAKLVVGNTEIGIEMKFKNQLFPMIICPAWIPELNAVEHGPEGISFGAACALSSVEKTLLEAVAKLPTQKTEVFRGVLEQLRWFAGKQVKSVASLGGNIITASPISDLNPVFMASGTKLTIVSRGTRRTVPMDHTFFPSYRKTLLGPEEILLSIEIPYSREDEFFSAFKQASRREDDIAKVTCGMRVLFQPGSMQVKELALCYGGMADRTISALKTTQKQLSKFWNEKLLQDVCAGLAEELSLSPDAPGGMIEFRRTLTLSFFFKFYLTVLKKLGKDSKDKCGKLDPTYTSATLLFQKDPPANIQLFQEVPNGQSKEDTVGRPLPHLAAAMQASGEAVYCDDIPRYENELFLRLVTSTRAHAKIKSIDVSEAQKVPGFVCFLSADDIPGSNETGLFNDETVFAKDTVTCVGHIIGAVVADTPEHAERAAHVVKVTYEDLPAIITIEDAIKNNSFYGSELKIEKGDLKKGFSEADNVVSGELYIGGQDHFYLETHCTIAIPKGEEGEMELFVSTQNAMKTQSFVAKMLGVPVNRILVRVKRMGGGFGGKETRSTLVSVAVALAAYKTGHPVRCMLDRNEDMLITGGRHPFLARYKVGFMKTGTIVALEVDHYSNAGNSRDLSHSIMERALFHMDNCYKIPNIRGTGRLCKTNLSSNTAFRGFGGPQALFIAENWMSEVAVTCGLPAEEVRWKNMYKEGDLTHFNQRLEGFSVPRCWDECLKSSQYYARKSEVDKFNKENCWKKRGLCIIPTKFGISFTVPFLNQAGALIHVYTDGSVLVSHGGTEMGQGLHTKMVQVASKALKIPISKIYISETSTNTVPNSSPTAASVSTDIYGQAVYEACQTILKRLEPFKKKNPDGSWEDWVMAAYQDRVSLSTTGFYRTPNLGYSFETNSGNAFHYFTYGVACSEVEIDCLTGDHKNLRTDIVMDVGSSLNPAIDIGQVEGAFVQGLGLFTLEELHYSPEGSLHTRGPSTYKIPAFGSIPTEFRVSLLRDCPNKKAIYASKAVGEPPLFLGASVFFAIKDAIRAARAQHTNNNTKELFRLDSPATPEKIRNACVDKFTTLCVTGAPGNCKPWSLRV
Sequence of Xanthine dehydrogenase/oxidase (Rattus norvegicus, UniProt P22985) (P22985 whole entry): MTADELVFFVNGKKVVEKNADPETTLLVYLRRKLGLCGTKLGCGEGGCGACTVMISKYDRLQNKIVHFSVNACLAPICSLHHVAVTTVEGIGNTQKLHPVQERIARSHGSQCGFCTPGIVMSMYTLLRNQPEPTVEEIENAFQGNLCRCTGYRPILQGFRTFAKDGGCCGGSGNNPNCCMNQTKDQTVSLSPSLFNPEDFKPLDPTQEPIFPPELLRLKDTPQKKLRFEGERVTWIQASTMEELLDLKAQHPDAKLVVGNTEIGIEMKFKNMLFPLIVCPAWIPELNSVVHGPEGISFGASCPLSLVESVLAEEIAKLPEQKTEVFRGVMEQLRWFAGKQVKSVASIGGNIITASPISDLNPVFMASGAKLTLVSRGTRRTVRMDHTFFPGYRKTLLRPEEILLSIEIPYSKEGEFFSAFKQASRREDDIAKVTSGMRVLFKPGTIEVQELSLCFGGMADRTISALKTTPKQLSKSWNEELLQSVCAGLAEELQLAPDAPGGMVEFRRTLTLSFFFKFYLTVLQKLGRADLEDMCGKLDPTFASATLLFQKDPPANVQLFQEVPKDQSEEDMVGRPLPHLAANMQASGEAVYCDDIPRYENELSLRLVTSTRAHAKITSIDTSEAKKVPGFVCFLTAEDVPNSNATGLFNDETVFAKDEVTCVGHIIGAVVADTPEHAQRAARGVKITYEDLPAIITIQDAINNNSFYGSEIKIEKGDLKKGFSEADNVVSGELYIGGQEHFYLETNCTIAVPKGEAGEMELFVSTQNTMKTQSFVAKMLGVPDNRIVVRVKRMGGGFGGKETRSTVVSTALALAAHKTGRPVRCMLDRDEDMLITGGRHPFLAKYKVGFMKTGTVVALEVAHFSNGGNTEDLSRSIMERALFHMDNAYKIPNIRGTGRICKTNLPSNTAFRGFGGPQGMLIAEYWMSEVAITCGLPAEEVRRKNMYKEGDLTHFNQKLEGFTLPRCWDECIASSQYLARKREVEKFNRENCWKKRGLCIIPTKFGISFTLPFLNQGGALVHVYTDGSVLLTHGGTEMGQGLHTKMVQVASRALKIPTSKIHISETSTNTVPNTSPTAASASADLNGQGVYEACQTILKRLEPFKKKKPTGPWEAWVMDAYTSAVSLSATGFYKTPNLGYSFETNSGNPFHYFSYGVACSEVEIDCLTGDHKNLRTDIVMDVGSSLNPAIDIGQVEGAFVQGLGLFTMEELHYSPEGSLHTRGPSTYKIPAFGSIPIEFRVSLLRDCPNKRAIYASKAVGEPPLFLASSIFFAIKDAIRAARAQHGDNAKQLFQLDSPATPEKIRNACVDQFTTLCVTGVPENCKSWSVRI

| SMILES | microsomal CLint [2] | solubility [3] | Papp B→A [4] | Papp A→B [5] | other results |
| --- | --- | --- | --- | --- | --- |
| COc1ccc(-c2cnc3nc[nH]c(=O)c3n2)cc1 | – | – | – | – | IC50 [1]: 15800 nM |
| CC(C)COc1ccc(-c2cc(=O)[nH]c(N)n2)cc1 | 42 µL/min/mg | 23 µM (≈ 5.96 µg/mL) | – | – | – |
| CC(C)COc1ccc(-c2cc(=O)[nH]c(N)n2)cc1C#N | 7.9 µL/min/mg | 140 µM (≈ 39.8 µg/mL) | – | – | – |
| N#Cc1cc(-c2nc(N)[nH]c(=O)c2Cl)ccc1OCC1CCOC1 (stereo unspecified) | 3.4 µL/min/mg | 41 µM (≈ 14.2 µg/mL) | 24 ×10⁻⁶ cm/s | 0.2 ×10⁻⁶ cm/s | – |
| Cc1cc(-c2nc(N)[nH]c(=O)c2Cl)cc(C#N)c1OCC1CCOC1 (stereo unspecified) | 5.3 µL/min/mg | 83 µM (≈ 29.9 µg/mL) | 35 ×10⁻⁶ cm/s | 2.1 ×10⁻⁶ cm/s | – |
| Nc1nc(-c2ccc(OCC3CCOC3)c(C(F)(F)F)c2)c(Cl)c(=O)[nH]1 (stereo unspecified) | 7.5 µL/min/mg | 24 µM (≈ 9.35 µg/mL) | 69 ×10⁻⁶ cm/s | 8.4 ×10⁻⁶ cm/s | Vdss [6]: 5.7 L/kg; bioavailability [7]: 33%; clearance [8]: 15 mL/min/kg; Cmax [9]: 270 nM; half-life [10]: 10 h |
| Nc1nc(-c2ccc(OCC3CCOC3)c(OC(F)(F)F)c2)c(Cl)c(=O)[nH]1 (stereo unspecified) | 18 µL/min/mg | 45 µM (≈ 18.3 µg/mL) | 74 ×10⁻⁶ cm/s | 6.4 ×10⁻⁶ cm/s | Vdss [6]: 13 L/kg; concentration at 2 h [11]: 370 nM; bioavailability [7]: 22%; clearance [8]: 35 mL/min/kg; Activity [12]: 54%; Activity [13]: 55%; Cmax [9]: 80 nM; half-life [10]: 13.2 h; IC50 [14]: 7.94 nM |
| N#Cc1cc(-c2cc(=O)[nH]c(N)n2)cc(C(F)(F)F)c1 | 0.2 µL/min/mg | 430 µM (≈ 120 µg/mL) | – | – | – |
| Nc1nc(-c2ccc(OCc3ccccc3)cc2)cc(=O)[nH]1 | – | < 1 µM | – | – | – |
| CNc1nc(-c2ccc(OCC(C)C)c(C#N)c2)c(C#N)c(=O)[nH]1 | 3.6 µL/min/mg | 37 µM (≈ 12 µg/mL) | – | – | – |
| N#Cc1c(-c2ccc(OCC3CCOC3)c(OC(F)(F)F)c2)nc(N)[nH]c1=O (stereo unspecified) | 21 µL/min/mg | 86 µM (≈ 34.1 µg/mL) | 29 ×10⁻⁶ cm/s | 0.1 ×10⁻⁶ cm/s | – |
| CC(C)(C)COc1ccc(-c2nc(N)[nH]c(=O)c2C#N)cc1OC(F)(F)F | 36 µL/min/mg | 6 µM (≈ 2.29 µg/mL) | 4.1 ×10⁻⁶ cm/s | 0.4 ×10⁻⁶ cm/s | – |
| CC(C)COc1ccc(-c2nc(N)[nH]c(=O)c2C#N)cc1C(F)(F)F | 8.5 µL/min/mg | 1.2 µM (≈ 0.423 µg/mL) | 23 ×10⁻⁶ cm/s | 1.7 ×10⁻⁶ cm/s | – |
| CC(=O)Nc1ccc(-c2cc(=O)[nH]c(N)n2)cc1 | – | – | – | – | CLH [15]: 2.7 µL/min/1e6 cells |
| c1ccc(-c2nn3c(-c4cnccn4)nnc3s2)cc1 | – | – | – | – | IC50 [16]: 79.4 nM |
| O=c1[nH]ccc2nc(-c3cccc(C(F)(F)F)c3)cn12 | – | – | – | – | IC50 [17]: 398 nM; inhibition (INH) [18]: Active |
| CC(=O)Nc1nc(-c2ccccc2)cc(=O)[nH]1 | – | – | – | – | IC50 [1]: > 100000 nM |
| CS(=O)(=O)Nc1nc(-c2ccccc2)cc(=O)[nH]1 | – | – | – | – | IC50 [1]: > 100000 nM |
| Cn1c(N)nc(-c2ccccc2)cc1=O | – | – | – | – | IC50 [1]: > 100000 nM |
| Oc1ncnc2[nH]ncc12 [ALLOPURINOL] | – | – | – | – | Activity [19]: 94%; Activity [20]: 87% |
| Nc1nc(-c2ccccc2)c(Br)c(=O)[nH]1 [BROPIRIMINE] | – | – | – | – | IC50 [1]: 1000 nM |
| Cc1nc(-c2ccc(OCC(C)C)c(C#N)c2)sc1C(=O)O [FEBUXOSTAT] | – | – | – | – | IC50 [1]: 1.26 nM; concentration at 2 h [11]: 8700 nM; Activity [12]: 75%; Activity [13]: 78%; IC50 [14]: 3.98 nM |

Second part, led by results:

| microsomal CLint [2] | solubility [3] | Papp B→A [4] | Papp A→B [5] | SMILES | other results |
| --- | --- | --- | --- | --- | --- |
| – | 36 µM (≈ 9.19 µg/mL) | – | – | Nc1nc(-c2cccc(C(F)(F)F)c2)cc(=O)[nH]1 | – |
| 3.2 µL/min/mg | 330 µM (≈ 89.5 µg/mL) | – | – | Nc1nc(-c2cccc(OC(F)(F)F)c2)cc(=O)[nH]1 | – |
| 1.2 µL/min/mg | 350 µM (≈ 79.2 µg/mL) | – | – | Cc1cc(C#N)cc(-c2cc(=O)[nH]c(N)n2)c1 | – |
| 6.9 µL/min/mg | 3.1 µM (≈ 0.847 µg/mL) | – | – | CC(C)(C)COc1ccc(-c2cc(=O)[nH]c(N)n2)cc1 | – |
| 6.8 µL/min/mg | 95 µM (≈ 26.2 µg/mL) | – | – | Nc1nc(-c2ccc(OCCCCO)cc2)cc(=O)[nH]1 | – |
| 21 µL/min/mg | 58 µM (≈ 16.7 µg/mL) | – | – | Nc1nc(-c2ccc(OCC3CCOC3)cc2)cc(=O)[nH]1 (stereo unspecified) | – |
| 4.1 µL/min/mg | 14 µM (≈ 4.33 µg/mL) | 30 ×10⁻⁶ cm/s | 0.1 ×10⁻⁶ cm/s | CC(C)COc1ccc(-c2nc(N)[nH]c(=O)c2C#N)cc1C#N | Vdss [6]: 2.5 L/kg; bioavailability [7]: 5.5%; clearance [8]: 1.8 mL/min/kg; Cmax [9]: 70 nM; half-life [10]: 19 h |
| 16 µL/min/mg | – | – | – | CC(C)COc1ccc(-c2nc(N)[nH]c(=O)c2Cl)cc1C#N | – |
| 1.7 µL/min/mg | 93 µM (≈ 31.1 µg/mL) | 25.6 ×10⁻⁶ cm/s | 0.2 ×10⁻⁶ cm/s | N#Cc1cc(-c2nc(N)[nH]c(=O)c2Cl)ccc1OCCCCO | – |
| 1.7 µL/min/mg | 45 µM (≈ 13.8 µg/mL) | 31 ×10⁻⁶ cm/s | 0.1 ×10⁻⁶ cm/s | N#Cc1cc(-c2nc(N)[nH]c(=O)c2C#N)ccc1OCC1CC1 | – |
